Experiment: gradient 5% acetonitrile 3 min, to 50% in 2 min, to 85% in 15 min, held 3 min, 100 µL/min
Settings: column: Zorbax Extend-C18 2.1 x 50 mm; eluents: water / acetonitrile, 0.1% formic acid
How it was run: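 Values are retention times taken from adduct peaks that software picked and an analyst inspected. The pure standards were run as mixtures of ~100 molecules on HPLC linked to a quadrupole time-of-flight mass spectrometer, in positive and negative ionization mode. A Zorbax Extend-C18 column (2.1 × 50 mm, 1.8 μm) was used at 100 μL/min with water and acetonitrile, each including 0.1% formic acid.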

With `CCN(CC)CCNc1ccc(CO)c2sc3ccccc3c(=O)c12` the RP-LC retention time was 646 s.

`CSc1cccc(NC(=O)Nc2nc(-c3ccccc3)cs2)c1` showed an RP-LC retention time of 1090 s.

Work on `C=C1C(=O)C2=CC1CCC(=O)C1(C)CCC(OC(C)=O)C(C)(C)C1CC2O` (centres undefined) yielded an RP-LC retention time of 718 s.

With `Cc1ccc(-c2nc3cnccn3c2Nc2ccc(Cl)cc2)cc1` the RP-LC retention time was 1000 s.

Work on `CCOC(=O)C1CCc2sc(NC(=O)C3COCC(=O)N3Cc3ccccc3)nc21` (centres undefined) yielded an RP-LC retention time of 730 s.

In the case of `Cn1c(=O)oc2cc(-c3noc(CNC(=O)C(c4ccccc4)c4ccccc4)n3)ccc21`, the RP-LC retention time is reported as 928 s.

`CCCN1C(=O)c2cc(C(=O)N3CCC(C)CC3)nn2CC1(C)C(=O)NC1CCCC1` (centres undefined) showed an RP-LC retention time of 817 s.

Work on `Cc1ccc(CNC(=O)Cn2ncc3c(c2=O)N(C2CC2)C(=O)CS3)cc1C` yielded an RP-LC retention time of 757 s.

In the case of `O=C(NC1CCCC1)C1CCN(C(=O)c2ccc(-c3noc(C4CC4)n3)cc2)CC1`, the RP-LC retention time is reported as 813 s.

In the case of `CCOc1cc(-c2nc(C3CC(=O)N(c4ccc(F)c(Cl)c4)C3)no2)cc(OCC)c1OCC` (centres undefined), the RP-LC retention time is reported as 1290 s.

In the case of `CC(=O)Nc1ccc(NC(=O)C2CC(=O)N(CCc3c[nH]c4ccc(Cl)cc34)C2)cc1` (centres undefined), the RP-LC retention time is reported as 679 s.

With `O=C(c1ccc(Br)cc1)N1CCN=C1N1CCN(c2ccccc2F)CC1` the RP-LC retention time was 632 s.

Molecule `Cc1ccc(-c2noc(C3CCCN3S(=O)(=O)c3cc(C)c(C)cc3C)n2)cc1` (centres undefined) has an RP-LC retention time of 1340 s.

In the case of `O=C(NCCn1nnc2cc(C(=O)N3CCCCC3)ccc21)NC1CCCCC1`, the RP-LC retention time is reported as 707 s.

`CCOC(=O)c1ccc(Nc2ncnc3c2ncn3CC)cc1` showed an RP-LC retention time of 760 s.

Molecule `CCc1nc2onc(C)c2c(=O)n1CC(=O)NCCC1=CCCCC1` has an RP-LC retention time of 899 s.

`CCc1nc2cc(-c3noc(Cc4ccc(OC)cc4Cl)n3)ccc2o1` showed an RP-LC retention time of 1190 s.

In the case of `CCn1cc(C(=O)Nc2cccc(F)c2)c2cccnc21`, the RP-LC retention time is reported as 892 s.

With `O=C(NC1CC1)C1CCN(c2nc3ccc(-c4ccsc4)nc3s2)CC1` the RP-LC retention time was 809 s.

`CN(C)CCCNC(=O)C(=O)c1c(-c2ccccc2)cc2ccccn12` gave an RP-LC retention time of 620 s.

For `CCOc1ccccc1NC(=O)CSc1cc(N2CCN(c3ccc(OC)cc3)CC2)ncn1`, the RP-LC retention time was 1090 s.

`COc1ccc(Cc2nc(-c3ccc4oc(C)nc4c3)no2)c(Cl)c1` showed an RP-LC retention time of 1060 s.

`CN(C)c1nc2cc(C(=O)NCc3ccncc3)sc2n1-c1ccccc1` gave an RP-LC retention time of 1130 s.

`O=C(Cn1c(=O)oc2ccccc21)N1CCc2nn(CC3CC3)c(=O)n2CC1` showed an RP-LC retention time of 682 s.

`COc1cccc(CCNC(=O)CN2C(=O)CSc3cccn3-c3ccccc32)c1` gave an RP-LC retention time of 900 s.

`O=C(Cc1noc2ccccc12)N1CCN(c2cc(-c3ccccc3)ncn2)CC1` gave an RP-LC retention time of 745 s.

For `CCc1ccc(NC(=O)Cn2cnc3nc4c(cc3c2=O)CCCC4)cc1`, the RP-LC retention time was 788 s.

`O=c1n(Cc2cccc(F)c2)nc2ccc(S(=O)(=O)N3CCCC3)cn12` showed an RP-LC retention time of 856 s.

Work on `COCCN1CCn2cc(S(=O)(=O)Nc3ccc(F)cc3Cl)cc2C1=O` yielded an RP-LC retention time of 725 s.

With `Cn1nc2c(c1NC(=O)C1CCCN1S(=O)(=O)c1ccc(F)cc1)CCC2` (centres undefined) the RP-LC retention time was 700 s.

Molecule `Cc1ccc(-c2cc3n(n2)CCCN(C(=O)CCN2C(=O)NC(C)(C)C2=O)C3)cc1C` has an RP-LC retention time of 730 s.

In the case of `CC(C)N1C(=O)c2cccnc2Sc2cc(NC(=O)Cc3cccc(F)c3)ccc21`, the RP-LC retention time is reported as 876 s.

`O=[N+]([O-])c1cccc(-c2nnc(-c3ccccc3)o2)c1` showed an RP-LC retention time of 887 s.

`COc1cccc(NS(=O)(=O)c2cc3c(s2)CCN(C(=O)C2CCC2)C3)c1` showed an RP-LC retention time of 851 s.

For `C=CCN1C(=O)COc2ccc(-c3nc(NC(=O)c4ccc(C)cc4)sc3C)cc21`, the RP-LC retention time was 1100 s.

Work on `COc1ccc(-c2nnc(-c3cccnc3NCCC3=CCCCC3)o2)cc1` yielded an RP-LC retention time of 1330 s.

Molecule `CCc1ccccc1S(=O)(=O)Nc1ccc2c(c1)nc(-c1ccc(C(=O)N(CC)CC)cc1)n2C` has an RP-LC retention time of 739 s.

In the case of `Cc1ccc(NC(=O)C2CCN(C(=O)C3Sc4ccccc4NC3=O)CC2)cc1` (centres undefined), the RP-LC retention time is reported as 749 s.

Molecule `COc1cc(Cl)c(NC(=O)CN2C(=O)CN(C)C(=O)c3ccccc32)c(OC)c1` has an RP-LC retention time of 717 s.

Work on `CC(NC(=O)c1ccco1)C(=O)NCc1nn(C(C)C)c2ccccc12` (centres undefined) yielded an RP-LC retention time of 712 s.

For `CCc1nn(C)c(=O)c2cc(S(=O)(=O)NCc3ccc(F)c(Cl)c3)cn12`, the RP-LC retention time was 933 s.

`O=C(NCc1ccc2c(c1)OCO2)C1CCCN(c2ccc(=O)n(-c3cccc(Cl)c3)n2)C1` (centres undefined) gave an RP-LC retention time of 857 s.

With `CN(CC1CCOC1)C(=O)Nc1cccc(C(F)(F)F)c1` (centres undefined) the RP-LC retention time was 784 s.

`CC1CCc2c(sc3ncn4c(=O)n(CC(=O)N5CCc6ccccc6C5)nc4c23)C1` (centres undefined) gave an RP-LC retention time of 1070 s.

In the case of `CN1CCN(c2c3c(nc4nc(-c5ccccc5)nn24)CCCC3)CC1`, the RP-LC retention time is reported as 582 s.

`COc1ccccc1C1NC(=O)NC(C)=C1C(=O)OC1CCCC1C` (centres undefined) gave an RP-LC retention time of 924 s.

Work on `CSc1ccc(CNC(=O)C2CCCN(C(=O)c3[nH]c(C)c(C(=O)OC(C)C)c3C)C2)cc1` (centres undefined) yielded an RP-LC retention time of 929 s.

In the case of `CCCNC(=O)Cn1ccn2nc(-c3ccccc3)c(CO)c2c1=O`, the RP-LC retention time is reported as 684 s.

For `COc1nn(C)cc1C(=O)N1CCC(C(=O)Nc2ccc(-n3cnnn3)cc2)CC1`, the RP-LC retention time was 600 s.

`COc1cccc(CNC(=O)c2nnc(-c3ccc(S(=O)(=O)N4CCOCC4)cc3)o2)c1` showed an RP-LC retention time of 822 s.

Work on `CCN(C(=O)Cc1csc2nc(-c3ccc(OC)c(OC)c3)cn12)c1ccccc1` yielded an RP-LC retention time of 772 s.

Molecule `COc1ccc(CNC(=O)C2CCCN(C(=O)c3[nH]c(C)c(C(=O)OC(C)C)c3C)C2)cc1` (centres undefined) has an RP-LC retention time of 812 s.

For `CN(C)C(=O)c1cc(N(C)C)nc2ccc(F)cc12`, the RP-LC retention time was 575 s.

In the case of `O=C(NCC1COc2ccccc2O1)C(=O)c1c[nH]c2ccccc12` (centres undefined), the RP-LC retention time is reported as 920 s.

Work on `O=C(CN1CCN(Cc2ccccc2F)C1=O)NCCc1cccs1` yielded an RP-LC retention time of 778 s.

`O=C1c2c(O)cc(O)cc2OC(c2ccc(O)c(O)c2)C1O` (centres undefined) showed an RP-LC retention time of 687 s.

Work on `O=C(NCCN1CCOCC1)c1ccc2ccnc(N3CCN(C(=O)c4ccco4)CC3)c2c1` yielded an RP-LC retention time of 567 s.

`CCNc1cc(N2CCC(CCC(=O)NCc3ccccc3C)CC2)ncn1` gave an RP-LC retention time of 651 s.

In the case of `COc1ncc(C(=O)NCc2cc(F)cc(F)c2)cn1`, the RP-LC retention time is reported as 718 s.

Work on `O=C1CC(c2noc(CCc3ccccc3)n2)CN1c1ccc(F)cc1` (centres undefined) yielded an RP-LC retention time of 966 s.

Work on `COc1ccc(-c2noc(Cn3nc(-c4ccccc4)ccc3=O)n2)cc1` yielded an RP-LC retention time of 953 s.

Work on `CCOC(=O)c1sc2nc(NC(=O)COc3ccccc3)sc2c1C` yielded an RP-LC retention time of 1040 s.

`CCCNC(=O)C1CCCN(c2ncnc3c2nc2n3CCCCC2)C1` (centres undefined) showed an RP-LC retention time of 650 s.

In the case of `O=S(=O)(c1ccc2c(c1)CCC2)N1CC(c2nc(CCOCc3ccccc3)no2)C1`, the RP-LC retention time is reported as 1140 s.

With `Cc1cc(C)cc(NC(=O)C2CCCN2S(C)(=O)=O)c1` (centres undefined) the RP-LC retention time was 782 s.

Work on `O=C(COc1ccc(Cl)cc1)NCc1nnc(SCC(=O)Nc2nccs2)o1` yielded an RP-LC retention time of 703 s.

In the case of `COc1ccc(-c2noc(C3CCCN3C(=O)c3cccnc3)n2)cc1` (centres undefined), the RP-LC retention time is reported as 725 s.

For `O=C(Nc1ccc(N2CCN(Cc3ccc(F)cc3)C2=O)nc1)c1ccco1`, the RP-LC retention time was 749 s.

`Cc1ccnc(Nc2nc(CC(=O)N3CCN(S(C)(=O)=O)CC3)cs2)c1` showed an RP-LC retention time of 565 s.

`Cc1noc(C)c1Cc1ccc(C(=O)NCc2nn(C)c3c2CN(C)CC3)o1` showed an RP-LC retention time of 578 s.

Molecule `CC1=NS(=O)(=O)N(Cc2ccccc2)C=C1C(=O)OCc1ccc(C)cc1C` has an RP-LC retention time of 1220 s.

With `CC(C)(C)OC(=O)Cn1cnc2c(-c3ccc(Br)cc3)csc2c1=O` the RP-LC retention time was 1140 s.

With `CC1(C(=O)NC2CCCCC2)CN(S(C)(=O)=O)CC(=O)N1c1ccc(Cl)cc1` (centres undefined) the RP-LC retention time was 860 s.

With `c1ccc(-c2noc(-c3ccccc3OC3CNC3)n2)cc1` the RP-LC retention time was 679 s.

Work on `CCCNC(=O)C1CCN(c2nc3ccc(-c4ccccc4)nc3s2)CC1` yielded an RP-LC retention time of 906 s.

In the case of `CCOC(=O)c1c(C)[nH]c(CCC(=O)NCCc2ccco2)c1C`, the RP-LC retention time is reported as 788 s.

Molecule `COc1ccccc1OCC(=O)NCc1ccsc1` has an RP-LC retention time of 747 s.

With `CCN(CC)CCNC(=O)CSc1cc(=O)n(C)c2cc(Cl)ccc12` the RP-LC retention time was 622 s.

For `Cc1ccc(NC(=O)CSc2nccc(N3CCN(c4cc(C)ccc4C)CC3)n2)c(C)c1`, the RP-LC retention time was 1060 s.

`COc1ccc(NC(=O)C(C)C2CCN(C(=O)Nc3ccc(F)cc3)CC2)c(OC)c1` (centres undefined) gave an RP-LC retention time of 871 s.

With `Cc1cccc(N2CCN(C(=O)C3CCCN(c4ncnc5c4nc4n5CCCCC4)C3)CC2)c1C` (centres undefined) the RP-LC retention time was 1090 s.

In the case of `CCOC(=O)N1CCN(C(=O)c2nn(-c3ccccc3C)c(=O)cc2OC)CC1`, the RP-LC retention time is reported as 663 s.

`COc1cc(OC)c(NC(=O)Cc2cn3cc(F)ccc3n2)cc1Cl` showed an RP-LC retention time of 637 s.

Work on `CCCNC(=O)c1cccc(-c2nc3cccnc3n2CCC)c1` yielded an RP-LC retention time of 705 s.

In the case of `O=S(=O)(c1cccc(Cl)c1)N1CCc2nc(-c3ccccc3)ncc2C1`, the RP-LC retention time is reported as 1170 s.

In the case of `CC(=O)Nc1ccc(C(=O)NCc2cccs2)c(N2CCCCC2)c1`, the RP-LC retention time is reported as 676 s.

Molecule `COc1ccc(CCn2ccc3nc(N4CCN(C)CC4)ncc3c2=O)cc1OC` has an RP-LC retention time of 605 s.

`CC(C)CC(=O)N1CCN(c2nc(CN3CCC(C)CC3)cs2)CC1` gave an RP-LC retention time of 634 s.

`O=c1c2sccc2n(Cc2nc(-c3ccc(OC(F)(F)F)cc3)no2)c(=O)n1-c1ccccc1` showed an RP-LC retention time of 1080 s.
